Measured values: ChEMBL document CHEMBL4651402, “Screening of ~5500 FDA-approved drugs and clinical candidates for anti-SARS-CoV-2 activity” (2021)
Numbered stars: 1 amine (or outer) side, 2 acyl side, 3 side chain; on linkers, the order of the positions; unused ones are H or OH. Bridge positions count the residues as written; N and C are the ends. Square brackets hold non-standard residues; d marks the D form. Peptide text beside a SMILES is read from it. * marks the point of attachment. X1 = NC1=N[C@@H]([C@H](N[*:1])C(=O)[*:2])C[C@H](O)N1; ΔAla(Z-3-ureido) = NC(=O)N/C=C(\N)C(=O)O; β3hOrn = NCCC[C@H](N)CC(=O)*; Dap = NC[C@H](N)C(=O)O

Test system: SARS-CoV-2
Test: microbe, parasite or virus in culture
Details: Severe acute respiratory syndrome coronavirus 2, Vero C1008, 48 h

| SMILES | IC50 | IC50 (read-out: pIC50 (converted)) |
| --- | --- | --- |
| NCCC[C@H](N)CC(=O)N[C@H]1CNC(=O)[C@H]([C@H]2C[C@H](O)NC(N)=N2)NC(=O)/C(=C/NC(N)=O)NC(=O)[C@H](CO)NC(=O)[C@H](CO)NC1=O [VIOMYCIN] (β3hOrn-[Dap]SS[ΔAla(Z-3-ureido)][X1]; lactam 1-C) | > 20 µM | > 20 µM |
| CCOCc1nc2c(N)nc3ccccc3c2n1CC(C)(C)O [RESIQUIMOD] | > 20 µM | > 20 µM |
| N=C(N)Nc1ccc(C(=O)Oc2ccc3c(c2)OC[C@H]3CC(=O)N[C@@H](CC(=O)O)C(=O)O)cc1 | > 20 µM | > 20 µM |
| OC[C@H]1O[C@H](O[C@H]2O[C@H](CO)[C@@H](O)[C@H](O)[C@H]2O)[C@H](O)[C@@H](O)[C@@H]1O [TREHALOSE] | > 20 µM | > 20 µM |
| O=C1c2ccccc2CN2C(=O)c3ccccc3CN12 [DIFTALONE] | > 20 µM | > 20 µM |
| Cc1cc(NC(=O)C2=C(O)c3ccccc3S(=O)(=O)N2C)no1 [ISOXICAM] | > 20 µM | > 20 µM |
| C[C@]12CCC(=O)C=C1C=C[C@@H]1[C@@H]2CC[C@@]2(C)[C@H]1CC[C@@]21CCC(=O)O1 [CANRENONE] | > 20 µM | > 20 µM |
| CN[C@@H](C)[C@@H](O)c1ccccc1 [PSEUDOEPHEDRINE] | > 20 µM | > 20 µM |
| CC(C)NNC(=O)c1ccncc1 [IPRONIAZID] | > 20 µM | > 20 µM |
| C[C@@H]1CC[C@@]2(OC1)O[C@H]1C[C@H]3[C@H]4CC[C@H]5C[C@@H](O[C@@H]6O[C@H](CO)[C@@H](O[C@@H]7O[C@H](CO)[C@@H](O)[C@H](O)[C@H]7O)[C@H](O)[C@H]6O)CC[C@@]5(C)[C@H]4CC[C@]3(C)[C@H]1[C@@H]2C | > 20 µM | > 20 µM |
| CC(C)C(=O)OC[C@@]1(N=[N+]=[N-])O[C@@H](n2ccc(N)nc2=O)[C@H](OC(=O)C(C)C)[C@@H]1OC(=O)C(C)C [BALAPIRAVIR] | > 20 µM | > 20 µM |
| NCCc1c[nH]c2ccccc12 [TRYPTAMINE] | > 20 µM | > 20 µM |
| COc1ccc(-c2cc3c(C)nc(N)nc3n([C@H]3CC[C@H](OCCO)CC3)c2=O)cn1 [PF-04691502] | > 20 µM | > 20 µM |
| COc1cc(NC(=O)Nc2cccc(CNC(=O)O[C@H]3CCOC3)c2)ccc1-c1cnco1 [MERIMEPODIB] | > 20 µM | > 20 µM |
| Nc1ccc(N)cc1 | > 20 µM | > 20 µM |
| CC1=C(C(=O)O)N2C(=O)[C@@H](NC(=O)[C@H](N)c3ccccc3)[C@H]2SC1 [CEPHALEXIN ANHYDROUS] | > 20 µM | > 20 µM |
| NCCCN | > 20 µM | > 20 µM |
| CC(C)C(N)=O [ISOBUTYRAMIDE] | > 20 µM | > 20 µM |
| O=C(NO)c1cc(Br)ccc1O [BROMOCYL] | > 20 µM | > 20 µM |
| C[C@H]1O[C@@H](O[C@H]2[C@@H](O)C[C@H](O[C@H]3[C@@H](O)C[C@H](O[C@H]4CC[C@@]5(C)[C@H](CC[C@@H]6[C@@H]5C[C@@H](O)[C@]5(C)[C@@H](C7=CC(=O)OC7)CC[C@]65O)C4)O[C@@H]3C)O[C@@H]2C)C[C@H](O)[C@@H]1O [DIGOXIN] | > 20 µM | > 20 µM |
| CCC(Br)(CC)C(=O)NC(N)=O [CARBROMAL] | > 20 µM | > 20 µM |
| CC(C)OC(=O)[C@H](C)NP(=O)(OC[C@H]1O[C@@H](n2ccc(=O)[nH]c2=O)[C@](C)(Cl)[C@@H]1O)Oc1ccccc1 (stereo not given in full) | > 20 µM | > 20 µM |
| Nc1ccc(S(=O)(=O)NC(=O)c2ccccc2)cc1 [SULFABENZAMIDE] | > 20 µM | > 20 µM |
| CCOC(=O)[C@H](CCc1ccccc1)N[C@H]1CCc2ccccc2N(CC(=O)O)C1=O [BENAZEPRIL] | > 20 µM | > 20 µM |

| SMILES | IC50 | IC50 (read-out: pIC50 (converted)) |
| --- | --- | --- |
| N#CC[C@@H](C1CCCC1)n1cc(-c2ncnc3[nH]ccc23)cn1 | > 20 µM | > 20 µM |
| CCCCCCCCCCCC(=O)O [DODECANOATE] | > 20 µM | > 20 µM |
| NCC(=O)CCC(=O)O [AMINOLEVULINIC ACID] | > 20 µM | > 20 µM |
| CC[C@H](Nc1ncnc2[nH]cnc12)c1nc2cccc(F)c2c(=O)n1-c1ccccc1 [IDELALISIB] | > 20 µM | > 20 µM |
| CC(C)(C)NCC(O)c1ccccc1Cl (stereo not given) [TULOBUTEROL] | > 20 µM | > 20 µM |
| O=[N+]([O-])OCC(CO[N+](=O)[O-])O[N+](=O)[O-] [NITROGLYCERIN] | > 20 µM | > 20 µM |
| Cc1cccc(C(C)c2c[nH]cn2)c1C (stereo not given) [MEDETOMIDINE] | > 20 µM | > 20 µM |
| C[C@]12C=CC(=O)C=C1CC[C@@H]1[C@@H]2[C@@H](O)C[C@@]2(C)[C@H]1CC[C@]2(O)C(=O)CO [PREDNISOLONE] | > 20 µM | > 20 µM |
| O=C(CCCN1CCC(O)(c2ccc(Cl)cc2)CC1)c1ccc(F)cc1 [HALOPERIDOL] | > 20 µM | > 20 µM |
| [O-][N+]1=C(c2ccccc2)c2cc(Cl)ccc2N=C(NCC2CC2)C1 [CYPRAZEPAM] | > 20 µM | > 20 µM |
| CC[C@H]1C2C[C@H]3[C@@H]4N(C)c5ccccc5[C@]45C[C@H](C2[C@H]5O)N3[C@@H]1O (stereo not given in full) | > 20 µM | > 20 µM |
| CCC1(C)CC(=O)NC(=O)C1 [BEMEGRIDE] | > 20 µM | > 20 µM |
| Cc1ccc2c(=O)c3cccc(CC(=O)O)c3oc2c1C [VADIMEZAN] | > 20 µM | > 20 µM |
| CN(C)CCCCCCN(C)C | > 20 µM | > 20 µM |
| CN1C(CSCC(F)(F)F)Nc2cc(Cl)c(S(N)(=O)=O)cc2S1(=O)=O (stereo not given) [POLYTHIAZIDE] | > 20 µM | > 20 µM |
| C1CCN2CC3CC(CN4CCCCC34)C2C1 (stereo not given) | > 20 µM | > 20 µM |
| CNCC(O)c1ccc(O)cc1 (stereo not given) [OXEDRINE] | > 20 µM | > 20 µM |
| CC(C)OC(=O)[C@H](C)N[P@](=S)(OC[C@H]1O[C@@H](n2ccc(=O)[nH]c2=O)[C@](C)(O)[C@@H]1O)Oc1ccccc1 | > 20 µM | > 20 µM |
| C#C[C@]1(O)CC[C@H]2[C@@H]3CCC4=CC(=O)CC[C@]4(C)[C@H]3CC[C@@]21C [ETHISTERONE] | > 20 µM | > 20 µM |
| O=C1C(O)=C(O)C(=O)C(O)=C1O [TETROQUINONE] | > 20 µM | > 20 µM |
| C[C@H](Cc1ccccc1)N(C)Cc1ccco1 | > 20 µM | > 20 µM |
| CN1CCC/C1=N\C(=N\c1ccccc1)N1CCOCC1 [LINOGLIRIDE] | > 20 µM | > 20 µM |
| CN1C(=O)N(c2cc(Cl)cc(Cl)c2)C(=O)[C@@]1(C)Cc1ccc(Br)cc1 | > 20 µM | > 20 µM |
| NC(=O)c1ccccc1O [SALICYLAMIDE] | > 20 µM | > 20 µM |

| SMILES | IC50 | IC50 (read-out: pIC50 (converted)) |
| --- | --- | --- |
| NC(=O)c1ccc(N)nc1 [6-AMINONICOTINAMIDE] | > 20 µM | > 20 µM |
| CC(=O)C1CCC2C3CCC4CC(O)CCC4(C)C3CC(O)C12C (stereo not given) | > 20 µM | > 20 µM |
| CC(C)S(=O)(=O)n1c(N)nc2ccc(/C(=N\O)c3ccccc3)cc21 [ZINVIROXIME] | > 20 µM | > 20 µM |
| CC(C)(C)CC(=O)OCC(=O)[C@@]12OC(C)(C)O[C@@H]1C[C@H]1[C@@H]3CCC4=CC(=O)C=C[C@]4(C)[C@@]3(F)[C@@H](O)C[C@@]12C [TRIAMCINOLONE HEXACETONIDE] | > 20 µM | > 20 µM |
| CS(=O)(=O)c1ccc(C2=C(c3ccccc3)C(=O)OC2)cc1 [ROFECOXIB] | > 20 µM | > 20 µM |
| CCC12CCCN3CCc4c(n(c5ccccc45)C(O)(C(=O)OC)C1)C32 (stereo not given) | > 20 µM | > 20 µM |
| CC(=O)SC[C@@H](C)C(=O)N1CCC[C@H]1C(=O)N[C@@H](Cc1ccccc1)C(=O)O | > 20 µM | > 20 µM |
| C=CCNc1nc(NCC=C)nc(N2CCC(NCC(c3ccc(F)cc3)c3ccc(F)cc3)CC2)n1 | > 20 µM | > 20 µM |
| CCn1cnc(C(=O)NC)c1C(=O)NC | > 20 µM | > 20 µM |
| CCC(=O)OCC(=O)[C@@]1(OC(=O)CC)[C@H](C)C[C@H]2[C@H]3[C@H]([C@@H](O)C[C@@]21C)[C@@]1(C)C=CC(=O)C=C1C[C@H]3Cl [ALCLOMETASONE DIPROPIONATE] | > 20 µM | > 20 µM |
| CCN(CC)CCOC(=O)C1(c2ccccc2)CCCC1 | > 20 µM | > 20 µM |
| CC(C)(C)C(=O)Oc1ccc(S(=O)(=O)Nc2ccccc2C(=O)NCC(=O)O)cc1 | > 20 µM | > 20 µM |
| O=NN(CCCl)C(=O)NCCCl [CARMUSTINE] | > 20 µM | > 20 µM |
| CCCC(=O)O[C@]1(C(=O)COC(C)=O)CC[C@H]2[C@@H]3C[C@H](F)C4=CC(=O)C=C[C@]4(C)[C@@]3(F)[C@@H](O)C[C@@]21C [DIFLUPREDNATE] | > 20 µM | > 20 µM |
| c1ccc(C2(N3CCCCC3)CCCCC2)cc1 [PHENCYCLIDINE] | > 20 µM | > 20 µM |
| CN(C)CCOC(c1ccc(Cl)cc1)c1ccccn1 (stereo not given) [CARBINOXAMINE] | > 20 µM | > 20 µM |
| CC[C@H]1C(C)=NN=C(c2ccc(OC)c(OC)c2)c2cc(OC)c(OC)cc21 [DEXTOFISOPAM] | > 20 µM | > 20 µM |
| O=C(O)c1ccc(CN2CC3CC2CN3Cc2ccc(Oc3ccc(-c4ncco4)cc3)cc2)cc1 (stereo not given) | > 20 µM | > 20 µM |
| CCOC(=O)O[C@]1(C(=O)COC(=O)CC)CC[C@H]2[C@@H]3CCC4=CC(=O)C=C[C@]4(C)[C@H]3[C@@H](O)C[C@@]21C [PREDNICARBATE] | > 20 µM | > 20 µM |
| Cc1cc(OCCCS(C)(=O)=O)cc(C)c1-c1cccc(COc2ccc3c(c2)OC[C@@H]3CC(=O)O)c1 | > 20 µM | > 20 µM |
| CCC(C(=O)OCCOCCN(CC)CC)c1ccccc1 (stereo not given) [BUTAMIRATE] | > 20 µM | > 20 µM |
| N[C@@]1(C(=O)O)CC[C@H]2[C@H](C(=O)O)[C@H]21 | > 20 µM | > 20 µM |
